# Reference: patent US12252484B2, “Pyrazolopyridine compounds for the treatment of autoimmune disease” (Hoffmann-La Roche Inc., priority 2018, dated 2025)
# Biological target: T1, human TLR8 (Homo sapiens, UniProt Q9NR97)
# T1 sequence (Q9NR97 27-1041): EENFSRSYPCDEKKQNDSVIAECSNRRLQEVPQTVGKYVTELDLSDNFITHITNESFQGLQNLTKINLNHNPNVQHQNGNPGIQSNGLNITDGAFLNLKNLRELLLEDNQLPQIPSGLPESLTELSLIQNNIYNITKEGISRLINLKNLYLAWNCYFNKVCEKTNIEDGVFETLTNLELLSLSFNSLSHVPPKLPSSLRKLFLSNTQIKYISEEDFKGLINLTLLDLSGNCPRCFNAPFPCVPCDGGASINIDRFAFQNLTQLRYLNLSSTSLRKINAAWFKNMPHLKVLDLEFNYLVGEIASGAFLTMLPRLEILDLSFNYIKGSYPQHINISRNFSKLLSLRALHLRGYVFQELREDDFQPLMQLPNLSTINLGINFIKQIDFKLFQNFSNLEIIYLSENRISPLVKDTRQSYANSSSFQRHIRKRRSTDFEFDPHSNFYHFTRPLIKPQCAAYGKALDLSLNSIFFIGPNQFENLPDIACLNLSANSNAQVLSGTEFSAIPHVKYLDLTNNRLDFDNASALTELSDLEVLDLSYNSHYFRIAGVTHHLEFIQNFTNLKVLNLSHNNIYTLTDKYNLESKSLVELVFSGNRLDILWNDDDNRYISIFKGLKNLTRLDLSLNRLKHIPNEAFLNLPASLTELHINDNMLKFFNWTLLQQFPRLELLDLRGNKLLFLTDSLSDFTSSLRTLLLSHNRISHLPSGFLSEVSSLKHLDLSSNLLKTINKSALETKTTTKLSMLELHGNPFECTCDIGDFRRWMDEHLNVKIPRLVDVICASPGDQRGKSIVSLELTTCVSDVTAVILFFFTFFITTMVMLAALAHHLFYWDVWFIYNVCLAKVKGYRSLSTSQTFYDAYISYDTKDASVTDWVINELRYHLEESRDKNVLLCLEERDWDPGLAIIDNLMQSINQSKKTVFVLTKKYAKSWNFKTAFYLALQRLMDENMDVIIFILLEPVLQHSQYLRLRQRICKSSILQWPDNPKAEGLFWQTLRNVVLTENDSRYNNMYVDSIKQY
# Assay: HEK293-Blue-hTLR-8 cells assay (SEAP reporter, R848 stimulation)
# Format: cell-based
# Conditions: not given
# Protocol: The following tests were carried out in order to determine the activity of the compounds of formula (I) in HEK293-Blue-hTLR-7/8/9 cells assay.
# HEK293-Blue-hTLR-8 Cells Assay:
# A stable HEK293-Blue-hTLR-8 cell line was purchased from InvivoGen (Cat. #: hkb-htlr8, San Diego, California, USA). These cells were originally designed for studying the stimulation of human TLR8 by monitoring the activation of NF-κB. A SEAP (secreted embryonic alkaline phosphatase) reporter gene was placed under the control of the IFN-β minimal promoter fused to five NF-κB and AP-1-binding sites. The SEAP was induced by activating NF-κB and AP-1 via stimulating HEK-Blue hTLR8 cells with TLR8 ligands. Therefore the reporter expression was declined by TLR8 antagonist under the stimulation of a ligand, such as R848, for incubation of 20 hrs. The cell culture supernatant SEAP reporter activity was determined using QUANTI-Blue™ kit (Cat. #: rep-qb1, Invivogen, San Diego, Ca, USA) at a wavelength of 640 nm, a detection medium that turns purple or blue in the presence of alkaline phosphatase.
# HEK293-Blue-hTLR8 cells were incubated at a density of 250,000˜450,000 cells/mL in a volume of 170 μL in a 96-well plate in Dulbecco's Modified Eagle's medium (DMEM) containing 4.5 g/L glucose, 50 U/mL penicillin, […], […], 2 mM L-glutamine, 10% (v/v) heat-inactivated fetal bovine serum with addition of 20 μL test compound in a serial dilution in the presence of final DMSO at 1% and 10 μL of 60 uM R848 in above DMEM, perform incubation under 37° C. in a CO2 incubator for 20 hrs. Then 20 μL of the supernatant from each well was incubated with 180 μL Quanti-blue substrate solution at 37° C. for 2 hrs and the absorbance was read at 620˜655 nm using a spectrophotometer. The signalling pathway that TLR8 activation leads to downstream NF-κB activation has been widely accepted, and therefore similar reporter assay was modified for evaluating TLR8 antagonist.
row,Compound,IC50 [µM]
1,"C[C@@H]1CN(c2ccc(C#N)n3nccc23)C[C@H](C(=O)NC2CC3CCCC(C2)N3C)O1 (stereo partly drawn) [Example 35, (2R,6R)-4-(7-cyanopyrazolo[1,5-a]pyridin-4-yl)-6-methyl-N-(9-methyl-9-azabicyclo[3.3.1]nonan-3-yl)morpholine-2-carboxamide]",0.038

# Same assay, conditions: HEK293-Blue-hTLR-8 cells, R848 ligand, 20 hrs incubation; read-out: TLR8 IC50
row,Compound,IC50 [µM]
1,"C[C@@H]1CN(c2ccc(C#N)n3nccc23)C[C@H](C(=O)NC2C3CNCC2COC3)O1 (stereo partly drawn) [Example 27, (2R,6R)-4-(7-cyanopyrazolo[1,5-a]pyridin-4-yl)-6-methyl-N-(3-oxa-7-azabicyclo[3.3.1]nonan-9-yl)morpholine-2-carboxamide]",0.37
2,"C[C@@H]1CN(c2ccc(C#N)n3nccc23)C[C@H](C(=O)N2CCC3(CCNCC3)CC2)O1 [Example 28, 4-[(2R,6R)-2-(3,9-diazaspiro[5.5]undecane-3-carbonyl)-6-methyl-morpholin-4-yl]pyrazolo[1,5a]pyridine-7-carbonitrile]",0.097
3,"C[C@@H]1CN(c2ccc(C#N)n3nccc23)C[C@H](C(=O)NC2C3CNC[C@@H]32)O1 (stereo partly drawn) [Example 31, Trans-(2R,6R)-N-(3-azabicyclo[3.1.0]hexan-6-yl)-4-(7-cyanopyrazolo[1,5-a]pyridin-4-yl)-6-methyl-morpholine-2-carboxamide]",0.072
4,"C[C@@H]1CN(c2ccc(C#N)n3nccc23)C[C@H](C(=O)NC2CN(C)CC23CC3)O1 (stereo partly drawn) [Example 32, (2R,6R)-4-(7-cyanopyrazolo[1,5-a]pyridin-4-yl)-6-methyl-N-(5-methyl-5-azaspiro[2.4]heptan-7-yl)morpholine-2-carboxamide]",0.031
5,"C[C@@H]1CN(c2ccc(C#N)n3nccc23)C[C@H](C(=O)NC2CC3CCC(C2)N3C)O1 (stereo partly drawn) [Example 33, (2R,6R)-4-(7-cyanopyrazolo[1,5-a]pyridin-4-yl)-6-methyl-N-(8-methyl-8-azabicyclo[3.2.1]octan-3-yl)morpholine-2-carboxamide]",0.058
6,"C[C@@H]1CN(c2ccc(C#N)n3nccc23)C[C@H](C(=O)NC2CC3CCC2CN3C)O1 (stereo partly drawn) [Example 34, (2R,6R)-4-(7-cyanopyrazolo[1,5-a]pyridin-4-yl)-6-methyl-N-(2-methyl-2-azabicyclo[2.2.2]octan-5-yl)morpholine-2-carboxamide]",0.098
7,"C[C@@H]1CN(c2ccc(C#N)n3nccc23)C[C@H](C(=O)NC2CC3CC2CN3)O1 (stereo partly drawn) [Example 36, (2R,6R)-N-(2-azabicyclo[2.2.1]heptan-5-yl)-4-(7-cyanopyrazolo[1,5-a]pyridin-4-yl)-6-methyl-morpholine-2-carboxamide]",0.83
8,"C[C@@H]1CN(c2ccc(C#N)n3nccc23)C[C@H](C(=O)NC2C3CCCC2CNC3)O1 (stereo partly drawn) [Example 37, (2R,6R)-N-(3-azabicyclo[3.3.1]nonan-9-yl)-4-(7-cyanopyrazolo[1,5-a]pyridin-4-yl)-6-methyl-morpholine-2-carboxamide]",0.018
9,"C[C@@H]1CN(c2ccc(Cl)n3nccc23)C[C@H](C(=O)NC2CCN(C)CC2)O1 [Example 38, (2R,6R)-4-(7-chloropyrazolo[1,5-a]pyridin-4-yl)-6-methyl-N-(1-methyl-4-piperidyl)morpholine-2-carboxamide]",0.007
10,"C[C@@H]1CN(c2ccc(C#N)n3nccc23)C[C@H](C(=O)NCC(C)(C)CN)O1 [Example 39, (2R,6R)-N-(3-amino-2,2-dimethyl-propyl)-4-(7-cyanopyrazolo[1,5-a]pyridin-4-yl)-6-methyl-morpholine-2-carboxamide]",0.033
11,"C[C@@H]1CN(c2ccc(C#N)n3nccc23)C[C@H](C(=O)NCC2CCNC2)O1 (stereo partly drawn) [Example 40, (2R,6R)-4-(7-cyanopyrazolo[1,5-a]pyridin-4-yl)-6-methyl-N-(pyrrolidin-3-ylmethyl)morpholine-2-carboxamide]",0.38
12,"C[C@@H]1CN(c2ccc(C#N)n3nccc23)C[C@H](C(=O)NC(C)(C)CN)O1 [Example 41, (2R,6R)-N-(2-amino-1,1-dimethyl-ethyl)-4-(7-cyanopyrazolo[1,5-a]pyridin-4-yl)-6-methyl-morpholine-2-carboxamide]",0.14
13,"C[C@@H]1CN(c2ccc(C#N)n3nccc23)C[C@H](C(=O)Nc2ccc(C(=O)N3CCNCC3)cc2)O1 [Example 42, (2R,6R)-4-(7-cyanopyrazolo[1,5-a]pyridin-4-yl)-6-methyl-N-[4-(piperazine-1-carbonyl)phenyl]morpholine-2-carboxamide]",0.062
14,"C[C@H]1C[C@@H](N)CN(c2ccc(C#N)n3nccc23)C1 [Example 43, 4-[(3R,5S)-3-amino-5-methyl-1-piperidyl]pyrazolo[1,5-a]pyridine-7-carbonitrile]",0.012
15,"C[C@H]1C[C@@H](NC(=O)[C@H](C)N)CN(c2ccc(C#N)n3nccc23)C1 [Example 44, (2S)-2-amino-N-[(3R,5S)-1-(7-cyanopyrazolo[1,5-a]pyridin-4-yl)-5-methyl-3-piperidyl]propanamide]",0.14
16,"C[C@H]1C[C@@H](NCC#N)CN(c2ccc(C#N)n3nccc23)C1 [Example 46, 4-[(3R,5S)-3-(cyanomethylamino)-5-methyl-1-piperidyl]pyrazolo[1,5-a]pyridine-7-carbonitrile]",0.24
17,"C[C@@H]1CN(c2ccc(C#N)n3ncc(F)c23)C[C@H](C(=O)NC2CCN(C)CC2)O1 [Example 47, (2R,6R)-4-(7-cyano-3-fluoro-pyrazolo[1,5-a]pyridin-4-yl)-6-methyl-N-(1-methyl-4-piperidyl)morpholine-2-carboxamide]",0.005
